Experimental data: patent publication US20020035061A1, “COMPOSITIONS AND METHODS FOR TREATING INFECTIONS USING CATIONIC PEPTIDES ALONE OR IN COMBINATION WITH ANTIBIOTICS” (priority 1996, published 2002)
Like-named read-outs stand apart in the source and are kept apart here.

Legend:
Format in all cases: cell-based
S. marcescens = system: S. marcescens
K. pneumoniae = system: K. pneumoniae
S. aureus = system: S. aureus
E. coli = system: E. coli
S. epidermidis = system: S. epidermidis
A. calcoaceticus = system: A. calcoaceticus
P. aeruginosa = system: P. aeruginosa
E. cloacae = system: E. cloacae
E. faecalis = system: E. faecalis
S. maltophilia = system: S. maltophilia

Sequence	MIC (S. marcescens; S. marcescens strain SMS003) [µg/mL]	MIC (S. epidermidis; S. epidermidis strain SE010) [µg/mL]	MIC (E. cloacae; E. cloacae strain ECL007) [µg/mL]	MIC (S. marcescens; S. marcescens SMS003) [µg/mL]	MIC (K. pneumoniae; K. pneumoniae KP001) [µg/mL]	MIC (S. aureus; S. aureus SA014) [µg/mL]	MIC (S. aureus; S. aureus SA093) [µg/mL]	MIC (E. coli; E. coli ECO005) [µg/mL]	MIC (S. epidermidis; S. epidermidis SE010) [µg/mL]	MIC (A. calcoaceticus; A. calcoaceticus AC002) [µg/mL]	MIC (P. aeruginosa; P. aeruginosa PA004) [µg/mL]	MIC (E. cloacae; E. cloacae ECL007) [µg/mL]	MIC (E. faecalis; E. faecalis EFS001) [µg/mL]	MIC (E. faecalis; E. faecalis EFS008) [µg/mL]	MIC (S. maltophilia; S. maltophilia SMA002) [µg/mL]	also measured
ILRNPNNPNRRK [MBI 11B7ACN]	>128	4	>128	–	–	–	–	–	–	–	–	–	–	–	–	MIC (K. pneumoniae; K. pneumoniae strain KP001, listed as MBI 11B7 ACN): 8 µg/mL; MIC (S. aureus; S. aureus strain SA014): 2 µg/mL; MIC (S. aureus; S. aureus strain SA093): 1 µg/mL; MIC (E. coli; E. coli strain ECO005, listed as MBI 11B7 ACN): 8 µg/mL; MIC (A. calcoaceticus; A. calcoaceticus strain AC002, listed as MBI 11B7 ACN): 2 µg/mL; MIC (P. aeruginosa; P. aeruginosa strain PA004, listed as MBI 11B7 ACN): 128 µg/mL; MIC (E. faecalis; E. faecalis strain EFS001, listed as MBI 11B7 ACN): 1 µg/mL; MIC (E. faecalis; E. faecalis strain EFS008): 8 µg/mL; MIC (S. maltophilia; S. maltophilia strain SMA002, listed as MBI 11B7 ACN): 32 µg/mL
ILRRNPNNPNRRK [MBI 11B1CNW1]	>128	8	64	–	–	–	–	–	–	–	–	–	–	–	–	MIC (K. pneumoniae; K. pneumoniae strain KP001): 32 µg/mL; MIC (S. aureus; S. aureus strain SA014): 16 µg/mL; MIC (E. coli; E. coli strain ECO005): 32 µg/mL; MIC (A. calcoaceticus; A. calcoaceticus strain AC002): 16 µg/mL; MIC (P. aeruginosa; P. aeruginosa strain PA004): 64 µg/mL; MIC (E. faecalis; E. faecalis strain EFS004): 8 µg/mL; MIC (S. maltophilia; S. maltophilia strain SMA002): 32 µg/mL
ILRRWVWWVWRRK [MBI 11F5CN]	–	–	–	>128	8	4	2	8	4	4	32	128	2	8	16	–
ILRWAWWPWRRK [MBI 11H05CN]	–	–	–	>128	8	2	1	8	4	4	128	>128	2	8	16	–
ILRWPAWPWRRK [MBI 11H06CN]	–	–	–	>128	64	8	1	16	8	8	>128	>128	2	16	64	–
ILRWPWAPWRRK [MBI 11H07CN]	–	–	–	>128	128	8	2	32	16	8	>128	>128	4	16	128	–
ILRWPWRRWPWRRK [MBI 11B19CN]	–	–	–	>128	64	4	2	8	4	4	128	>128	2	32	32	–
ILRWPWWAWRRK [MBI 11H08CN]	–	–	–	>128	32	4	1	8	4	4	>128	>128	2	8	32	–
ILRWPWWPARRK [MBI 11H09CN]	–	–	–	>128	64	8	2	32	16	4	>128	>128	4	64	64	–
ILRWPWWPWARK [MBI 11H10CN]	–	–	–	>128	16	4	1	16	4	4	>128	>128	2	8	64	–
ILRWPWWPWRAK [MBI 11H11CN]	–	–	–	>128	16	4	1	16	4	4	>128	>128	2	8	64	–
ILRWPWWPWRRA [MBI 11H12CN]	–	–	–	>128	16	2	1	16	4	4	>128	>128	2	8	64	–
ILRWPWWPWRRKDMILKKAGS [MBI 11B18CN]	>128	4	>128	–	–	–	–	–	–	–	–	–	–	–	–	MIC (K. pneumoniae; K. pneumoniae strain KP001): 32 µg/mL; MIC (S. aureus; S. aureus strain SA093): 2 µg/mL; MIC (E. coli; E. coli strain ECO005): 32 µg/mL; MIC (A. calcoaceticus; A. calcoaceticus strain AC002): 2 µg/mL; MIC (P. aeruginosa; P. aeruginosa strain PA004): >128 µg/mL; MIC (E. faecalis; E. faecalis strain EFS008): 4 µg/mL; MIC (S. maltophilia; S. maltophilia strain SMA002): 64 µg/mL
ILRWPWWPWRRKMILKKAGS [MBI 11B17CN]	>128	4	>128	–	–	–	–	–	–	–	–	–	–	–	–	MIC (K. pneumoniae; K. pneumoniae strain KP001): 16 µg/mL; MIC (S. aureus; S. aureus strain SA093): 2 µg/mL; MIC (E. coli; E. coli strain ECO005): 8 µg/mL; MIC (A. calcoaceticus; A. calcoaceticus strain AC002): 2 µg/mL; MIC (P. aeruginosa; P. aeruginosa strain PA004): >128 µg/mL; MIC (E. faecalis; E. faecalis strain EFS008): 4 µg/mL; MIC (S. maltophilia; S. maltophilia strain SMA002): 32 µg/mL
ILRWPWWPWWPWRRK [MBI 11A9CN]	>128	4	128	–	–	–	–	–	–	–	–	–	–	–	–	MIC (K. pneumoniae; K. pneumoniae strain KP001): 32 µg/mL; MIC (S. aureus; S. aureus strain SA014): 4 µg/mL; MIC (S. aureus; S. aureus strain SA093): 2 µg/mL; MIC (E. coli; E. coli strain ECO005): 32 µg/mL; MIC (A. calcoaceticus; A. calcoaceticus strain AC002): 8 µg/mL; MIC (P. aeruginosa; P. aeruginosa strain PA004): 128 µg/mL; MIC (E. faecalis; E. faecalis strain EFS001): 2 µg/mL; MIC (E. faecalis; E. faecalis strain EFS008): 8 µg/mL; MIC (S. maltophilia; S. maltophilia strain SMA002): 32 µg/mL
ILRWWVWWVWWRRK [MBI 11F6CN]	–	–	–	>128	32	16	8	32	8	16	128	64	16	16	64	–
ILRYVYYVYRRK [MBI 11A8CN]	>128	16	>128	–	–	–	–	–	–	–	–	–	–	–	–	MIC (K. pneumoniae; K. pneumoniae strain KP001): 128 µg/mL; MIC (S. aureus; S. aureus strain SA093): 1 µg/mL; MIC (E. coli; E. coli strain ECO005): 32 µg/mL; MIC (A. calcoaceticus; A. calcoaceticus strain AC002): 8 µg/mL; MIC (P. aeruginosa; P. aeruginosa strain PA004): >128 µg/mL; MIC (E. faecalis; E. faecalis strain EFS001): 4 µg/mL; MIC (S. maltophilia; S. maltophilia strain SMA002): 32 µg/mL
KRRWPWWPWKKLI [MBI 11CNR]	–	–	–	128	4	–	4	8	4	4	32	>128	4	–	32	–
